Measurements published in ChEMBL document CHEMBL3045652, “Biorational glycol diesters as dietary toxins versus bioefficacy of sucrose octanoate against lepidopteran larvae” (Ind Crops Prod, 2012).
Converted amounts (≈) assume the structure as drawn. The source made the active and inactive calls. The rule behind the calls is not given here.

Key:
[1] = system: Helicoverpa armigera; test: Insecticidal activity against second-instar larval stage of Helicoverpa armigera fed with artificial diet containing compound assessed as mortality after 7 days; format: functional; details: 168 h
[2] = system: Helicoverpa armigera; test: Antifeedant activity against third-instar larval stage of Helicoverpa armigera fed with artificial diet containing compound assessed as relative consumption rate at 3.94 mg/ml after 3 days (reference value: 1.88 +/- 0.14 mg/mg/day); format: functional
[3] = system: Spodoptera litura; test: Antifeedant activity against third-instar larval stage of Spodoptera litura fed with artificial diet containing compound assessed as efficiency index of ingested food at 3.98 mg/ml after 3 days (reference value: 64.5%); format: functional
[4] = system: Helicoverpa armigera; test: Antifeedant activity against third-instar larval stage of Helicoverpa armigera fed with artificial diet containing compound assessed as relative growth rate at 3.94 mg/ml after 3 days (reference value: 0.97 +/- 0.13 mg/mg/day); format: functional
[5] = system: Spodoptera litura; test: Antifeedant activity against third-instar larval stage of Spodoptera litura fed with artificial diet containing compound assessed as relative growth rate at 3.98 mg/ml after 3 days (reference value: 1.37 +/- 0.12 mg/mg/day); format: functional
[6] = system: Helicoverpa armigera; test: Antifeedant activity against third-instar larval stage of Helicoverpa armigera fed with artificial diet containing compound assessed as efficiency index of ingested food at 3.94 mg/ml after 3 days (reference value: 52%); format: functional
[7] = system: Spodoptera litura; test: Insecticidal activity against second-instar larval stage of Spodoptera litura assessed as mortality applied as spray after 72 hr; format: functional
[8] = system: Spodoptera litura; test: Antifeedant activity against third-instar larval stage of Spodoptera litura fed with artificial diet containing compound assessed as relative consumption rate at 3.98 mg/ml after 3 days (reference value: 2.13 +/- 0.18 mg/mg/day); format: functional
[9] = system: Helicoverpa armigera; test: Insecticidal activity against second-instar larval stage of Helicoverpa armigera assessed as mortality applied as spray after 72 hr; format: functional
[10] = system: Spodoptera litura; test: Insecticidal activity against second-instar larval stage of Spodoptera litura fed with artificial diet containing compound assessed as growth inhibition after 7 days; format: functional, organism-based; details: for EC50: 168 h
[11] = system: Helicoverpa armigera; test: Insecticidal activity against second-instar larval stage of Helicoverpa armigera fed with artificial diet containing compound assessed as growth inhibition after 7 days; format: functional, organism-based; details: for EC50: 168 h
[12] = system: Spodoptera litura; test: Insecticidal activity against second-instar larval stage of Spodoptera litura fed with artificial diet containing compound assessed as mortality after 7 days; format: functional; details: 168 h
[13] = system: Spodoptera litura; test: Antifeedant activity against third-instar larval stage of Spodoptera litura fed with artificial diet containing compound assessed as relative consumption rate at 3.34 mg/ml after 3 days (reference value: 2.13 +/- 0.18 mg/mg/day); format: functional
[14] = system: Helicoverpa armigera; test: Antifeedant activity against third-instar larval stage of Helicoverpa armigera fed with artificial diet containing compound assessed as relative consumption rate at 5.16 mg/ml after 3 days (reference value: 1.88 +/- 0.14 mg/mg/day); format: functional
[15] = system: Helicoverpa armigera; test: Antifeedant activity against third-instar larval stage of Helicoverpa armigera fed with artificial diet containing compound assessed as efficiency index of ingested food at 5.16 mg/ml after 3 days (reference value: 52%); format: functional
[16] = system: Helicoverpa armigera; test: Antifeedant activity against third-instar larval stage of Helicoverpa armigera fed with artificial diet containing compound assessed as relative growth rate at 5.16 mg/ml after 3 days (reference value: 0.97 +/- 0.13 mg/mg/day); format: functional
[17] = system: Spodoptera litura; test: Insecticidal activity against second-instar larval stage of Spodoptera litura assessed as increase in mortality applied as spray at 1 to 10 mg/ml after 72 hr; format: functional, organism-based
[18] = system: Spodoptera litura; test: Antifeedant activity against third-instar larval stage of Spodoptera litura fed with artificial diet containing compound assessed as relative growth rate at 3.34 mg/ml after 3 days (reference value: 1.37 +/- 0.12 mg/mg/day); format: functional
[19] = system: Spodoptera litura; test: Antifeedant activity against third-instar larval stage of Spodoptera litura fed with artificial diet containing compound assessed as efficiency index of ingested food at 3.34 mg/ml after 3 days (reference value: 64.5%); format: functional
[20] = system: Helicoverpa armigera; test: Insecticidal activity against second-instar larval stage of Helicoverpa armigera assessed as increase in mortality applied as spray at 1 to 10 mg/ml after 72 hr; format: functional, organism-based
[21] = system: Spodoptera litura; test: Antifeedant activity against third-instar larval stage of Spodoptera litura fed with artificial diet containing compound assessed as relative growth rate at 3.72 mg/ml after 3 days (reference value: 1.37 +/- 0.12 mg/mg/day); format: functional
[22] = system: Helicoverpa armigera; test: Antifeedant activity against third-instar larval stage of Helicoverpa armigera fed with artificial diet containing compound assessed as efficiency index of ingested food at 6.02 mg/ml after 3 days (reference value: 52%); format: functional
[23] = system: Spodoptera litura; test: Antifeedant activity against third-instar larval stage of Spodoptera litura fed with artificial diet containing compound assessed as relative consumption rate at 3.72 mg/ml after 3 days (reference value: 2.13 +/- 0.18 mg/mg/day); format: functional
[24] = system: Spodoptera litura; test: Antifeedant activity against third-instar larval stage of Spodoptera litura fed with artificial diet containing compound assessed as efficiency index of ingested food at 3.72 mg/ml after 3 days (reference value: 64.5%); format: functional
[25] = system: Helicoverpa armigera; test: Antifeedant activity against third-instar larval stage of Helicoverpa armigera fed with artificial diet containing compound assessed as relative consumption rate at 6.02 mg/ml after 3 days (reference value: 1.88 +/- 0.14 mg/mg/day); format: functional
[26] = system: Helicoverpa armigera; test: Antifeedant activity against third-instar larval stage of Helicoverpa armigera fed with artificial diet containing compound assessed as relative growth rate at 6.02 mg/ml after 3 days (reference value: 0.97 +/- 0.13 mg/mg/day); format: functional

CCCCCCCC(=O)OCCOC(=O)CCCCCCC [ETHYLENE GLYCOL DIOCTANOATE]
LC50 [1]: 3140 mg/L (≈ 9.99 mM)
Activity [2]: 1.9 mg/mg/day
ECI [3]: 8%
Activity [4]: 0.69 mg/mg/day
Activity [5]: 0.72 mg/mg/day
ECI [6]: 36.5%
LC50 [7]: 6100 mg/L (≈ 19.4 mM)
Activity [8]: 2 mg/mg/day
LC50 [9]: 6500 mg/L (≈ 20.7 mM)
growth inhibition (GI) [10]: Dose-dependent effect
EC50 [10]: 1980 mg/L (≈ 6.3 mM)
growth inhibition (GI) [11]: Dose-dependent effect
EC50 [11]: 2080 mg/L (≈ 6.61 mM)
LC50 [12]: 2000 mg/L (≈ 6.36 mM)

CCCCC(=O)OCCOC(=O)CCCC [ETHYLENE GLYCOL DIPENTANOATE]
LC50 [1]: 2000 mg/L (≈ 8.68 mM)
Activity [13]: 2.09 mg/mg/day
Activity [14]: 1.82 mg/mg/day
ECI [15]: 31.9%
Activity [16]: 0.58 mg/mg/day
Activity [17]: Active
Activity [18]: 0.64 mg/mg/day
growth inhibition (GI) [10]: Dose-dependent effect
EC50 [10]: 1840 mg/L (≈ 7.99 mM)
ECI [19]: 4%
Activity [20]: Active
growth inhibition (GI) [11]: Dose-dependent effect
EC50 [11]: 2120 mg/L (≈ 9.21 mM)
LC50 [12]: 2340 mg/L (≈ 10.2 mM)

CCCC(=O)OCCOC(=O)CCC [ETHYLENE GLYCOL DIBUTANOATE]
Activity [21]: 0.74 mg/mg/day
LC50 [1]: 2000 mg/L (≈ 9.89 mM)
ECI [22]: 32.4%
Activity [23]: 2.04 mg/mg/day
ECI [24]: 2%
Activity [25]: 1.7 mg/mg/day
Activity [17]: Active
growth inhibition (GI) [10]: Dose-dependent effect
EC50 [10]: 1850 mg/L (≈ 9.15 mM)
Activity [20]: Active
growth inhibition (GI) [11]: Dose-dependent effect
EC50 [11]: 2820 mg/L (≈ 13.9 mM)
Activity [26]: 0.55 mg/mg/day
LC50 [12]: 2000 mg/L (≈ 9.89 mM)
